Values joined by “and” are separate entries in the source; they are usually repeats but may differ in a detail not shown here. Equal entries are not always repeated.
Columns and labels:
Format in all cases: in vivo, mouse
[1] = system: established EMG in B6 mice; experiment: Subcutaneous treatment, post-priming protocol, established EMG (Example IV); settings: at 44 weeks, s.c. post-priming protocol
Description: B6 mice (Jackson Laboratory, Bar Harbor, Me.) were injected s.c. with 100 μl of PBS containing increasing amounts of a pool of the same amount in weight of each of the three epitope peptides Tα150-169, Tα180-200 and Tα360-378 (‘peptide pool’), or 200 μg of Tα150-169 alone, or 100 μl of PBS containing 0.1% Triton X-100 and 10 μg of solubilized TAChR. Two different treatment schedules were used, referred to as prevention and post-priming protocols. In the prevention protocol, the peptides or solubilized TAChR were administered twice per week for 14 weeks, starting 2 weeks before the beginning of the immunization with TAChR. In the post-priming protocol, peptides or solubilized TAChR were administered twice per week for […], starting 8 weeks after the beginning of the TAChR immunization. Control mice received 100 μl of peptide-free PBS, following the same schedules.
Immunization 8-10 week old mice were immunized by s.c. injections, along the back and at the base of the tail, of TAChR (a total of 50 μg in 100 μl of PBS for each immunization) emulsified in an equal volume of CFA for the first injection, and IFA for the following two boosts. The mice were injected for a total of three times at 3-4 week intervals. At the end of the observation period, the mice received a third boost, and were sacrificed 5-7 days later. Control mice were injected with clean PBS in the appropriate adjuvant.
Evaluation of the symptoms of EMG The EMG symptoms were quantified using a forced exercise test sensitized by i.p. injection of a minute amount of pancuronium bromide (0.03 mg/kg) just before the test (Karachunski et al., 1995). The mouse hangs from a grid suspended above a soft padding, and the time it takes the mouse to fall three times (‘holding time’) was measured. The test is parametric, and gives a quantitative assessment of the mouse weakness. The myasthenic nature of the weakness was verified by injecting i.p. edrophonium chloride (Reversol, Organon, West Orange, N.J.), which is a cholinesterase inhibitor. […] The mice were tested without knowledge of their treatment. […]

[2] = system: serum anti-TAChR antibody; experiment: Anti-AChR antibody assay by RIPA (Example I)
Description: Sera was obtained from the mice after each clinical testing. […] The antibody concentration is expressed as μM precipitated ^125I-αBTX.

[3] = system: anti-TAChR and anti-peptide IgG subclasses; experiment: ELISA of anti-TAChR and anti-peptide IgG subclasses (Example III); settings: IL-4 KO mice, nasal α epitope pool
Description: Assay of Anti-TAChR and Anti-peptide IgG Subclasses. The relative concentration of IgG subclasses of anti-TAChR and anti-peptide antibodies in the sera of peptide- and sham-treated mice was measured by ELISA after immunization with TAChR. Pooled sera from three-four mice that had received identical treatments was used. The sera used in this assay was obtained at the end of the observation period (10 weeks after beginning of the anti-TAChR immunization).
Ninety-six well plates (Nunc, Karstrup, Denmark) were washed extensively and incubated as follows: 4 hours with a 10 μg/ml solution of TAChR or of individual peptides Tα150-169, Tα181-200 and Tα360-378 in 0.1 M Na phosphate buffer, pH 9.5 (two wells for each antigen), 1 hr with PBS plus 3% bovine serum albumin (BSA), 2 hours with mouse serum (serial dilutions from 1:100 to 1:40,000 in PBS plus 3% BSA), 1 hr with a dilution 1:1000 in PBS plus 3% BSA of goat antibody specific for the total IgG, or IgGl, or IgG2a, or IgG2b or IgG3 (Mouse Monoclonal Isotyping Kit, Sigma, St. Louis, Mo.), and 30 minutes with a 1:3000 dilution of peroxidase-conjugate rabbit anti-goat IgG (Sigma) in PBS plus 3% BSA. The plates were washed, and developed them for 20-60 minutes with ABTS peroxidase substrate system (Kirkegaard & Perry Laboratories Inc., Gaithersburg, Md.). […] The OD was read at 405 nanometers. […]

serum anti-TAChR Ab = experiment: Anti-TAChR IgG and IgG1 radioimmunoprecipitation assay (Example IV)
Description: Anti-TAChR Ab assay. Sera was obtained from each mouse after each clinical testing and at the end of the observation period (12 weeks after beginning of the TAChR immunization). The serum concentration of anti-TAChR IgG and IgGI was determined by radioimmunoprecipitation assay, using TAChR solubilized in Triton X-100 and labeled by the binding of ^125I-α-BTX (Bellone et al., 1991a). As a secondary Ab, either rabbit anti-mouse IgG produced, or goat anti-mouse IgG1 (Sigma, St. Louis, Mo.), was used. The anti-TAChR Ab concentration is expressed as μM precipitated ^125I-α-BTX binding sites.
Two types of experiments were carried out. In one of them the total anti-TAChR Ab in the sera of individual mice, obtained 8, 10 and 12 weeks after the first TAChR immunization, was determined. In the other, the anti-TAChR IgG1 concentration was determined, as well as the total anti-TAChR IgG concentration, in sera obtained at the end of the observation period. For this second assay pooled sera from five mice that had received identical treatments was used.

[4] = s.c. 200 μg, pooled sera of five mice

peptide Tα150-169: synthetic peptide corresponding to residues 150-169 of the TAChR α subunit (TYDGTKVSISPESDRPDLST; UniProt P02710 174-193, looked up, fragment)
mice with holding times of 6.2 or less [1]: 6%
serum anti-TAChR antibody concentration compared with sham-treated ([2]; as early as 4 weeks after first TAChR immunization): significantly lower concentrations
serum anti-TAChR antibody concentration ([2]; at ten weeks, nasal protocol B, μM precipitated 125I-αBTX): 5.5 ± 1.5 µM
anti-peptide IgG2a [3]: moderate synthesis of IgG2a
reduction of anti-TAChR IgG1 (serum anti-TAChR Ab; 200 μg, p<0.008): very modest reduction
anti-TAChR Ab concentrations compared with sham-treated groups (serum anti-TAChR Ab; at 12 weeks, s.c. prevention protocol): significantly and substantially lower
IgG1 anti-TAChR (serum anti-TAChR Ab; [4]): 0.22 ± 0.005 µM and 0.27 ± 0.01 µM
Total IgG anti-TAChR (serum anti-TAChR Ab; [4]): 0.47 ± 0.01 µM and 0.28 ± 0.015 µM
